Where “and” joins values, the source holds several entries; their conditions need not be identical. Identical values can stand only once.
Columns and labels:
RPMI-8226 cells = assay: Cell proliferation, XTT-based assay; conditions: Homo sapiens, bortezomib alone, read-out: IC50 (inhibition of cell proliferation)
Experimental: (§1) Increasing amounts of Bortezomib (Velcade®, Lot: No.: #9AZSY00) were applied to AMO-1, LP-1, NCI-H929 and RPMI-8226 cells and incubated for 24 h, 48 h and 72 h. After incubation, period plates were analyzed for cell proliferation in a quantitative colorimietric XTT-based assay using the cell proliferation kit II (ROCHE, Cell Proliferation Kit II, Cat. No.: 11465015001). For subsequent measurement, plates were subjected to Tecan Genios Reader and absorbance at 492 nm was detected.

NCI-H929 cells [1] = assay: ADCC with human PBMCs, flow cytometry (CalceinAM/PI); conditions: NCI-H929 target cells treated with bortezomib before MOR202 15 μg/ml; FIG. 9
Experimental: PBMC's were isolated by density gradient centrifugation of freshly isolated human blood. Isolated blood from different donors were layered on a defined volume of Biocoll (Biochrome AG; CAT No.:L6115; LOT No.:1050T) in a Falcon tube and centrifuged at 380 g. The PBMCs were isolated and supplemented with RPMI medium.
Cell suspensions were further incubated for 4 h at 37° C. To detect dead AMO-1 cells, cell suspensions were challenged with propidium iodide (PI) and subsequently analyzed in flow cytometry. Target cells were separated via gating of CalceinAM positive cell populations, and cells killed via ADCC were quantified.
Single and combination doses of 5 μM LEN and 15 μg/ml of MOR03207 and 0.2 or 0.07 μg/ml MOR202 were used.
Single and combination doses of 5 μM LEN and 15 μg/ml of MOR03207 and 0.2* or 0.07 μg/m MOR202 were used.

LP-1 cells [2] = assay: Cell proliferation, XTT-based assay; conditions: Homo sapiens, bortezomib alone, read-out: IC50 (inhibition of cell proliferation)
Experimental: as §1

AMO-1 cells = assay: Cell proliferation, XTT-based assay; set-up: species or system human; conditions: Homo sapiens, AMO1, bortezomib alone, XTT, read-out: IC50 (inhibition of cell proliferation)
Experimental: (§2) Cells were collected and distributed in 96-well plates with 5000 cells per well.
(§3) After incubation, plates were analyzed for cell proliferation in a quantitative colorimietric XTT-based assay using the cell proliferation kit II (ROCHE, Cell Proliferation Kit II, Cat. No.: 11465015001). For subsequent measurement plates were subjected to Tecan Genios Reader and absorbance at 492 nm was detected.
as §1

NCI-H929 cells [3] = assay: Cell proliferation, XTT-based assay; conditions: Homo sapiens, NCI-H929, read-out: IC50 (inhibition of cell proliferation)
Experimental: as §2, §3, §1

NCI-H929 MM cells = assay: NCI-H929 bone lysis SCID mouse model, MOR202 and BOR (MicroCT); type: in vivo, SCID mice
Source text: 63 SCID mice were inoculated on Day (−7) intra-tibially with 2.5×10^6 NCI-H929 MM cells in order to induce bone lysis. Bortezomib (Groups A and AB) and Vehicle Control (Group C) treatments started on Day (−1). MOR202 treatments (Groups B and AB) started on Day 0. Treatment continued for 6 weeks.
MicroCT Scan was used to assess bone lysis and included a 3-dimensional analysis comprising Total Bone Volume (TBV), Trabecular Bone Volume (Tb.BV), Trabecular Pattern Factor (Tb.Pf) and Structure Model Index (SMI). Table 10 above defines each of these parameters.

LP-1 cells [4] = assay: ADCC with human PBMCs, flow cytometry (CalceinAM/PI); type: cell-based; conditions: LP-1 target cells treated with bortezomib before MOR202 15 μg/ml; FIG. 10
Experimental: Using the methods described in Example 4, the ADCC effect of combining bortezomib and MOR202 was analyzed. Here, the target cells were treated with bortezomib prior to the treatment with MOR202. Both target cells. NCI-H929 and LP-1 cells were tested.

RAMOS cells = conditions: BOR 0.6 mg/kg i.p., MOR202 1 mg/kg i.v.
Experimental: Fifty-five female SCID mice were pre-treated with Cyclophosphamide (75 mg/kg, i.p., twice daily) for two days prior to RAMOS cell inoculation (Day −5 and −4). On the day of inoculation (Day −3), all fifty-five mice were inoculated with 1×10^6 RAMOS cells each (in 100 μL) intravenously into the tail vein. Forty-eight of the mice were randomised by body weight into six groups of eight.
The study continued for 98 days and the measured endpoint was survival.

[5] = Bortezomib 0.6 mg/kg i.p. twice per week, MOR202 3 mg/kg i.p. three times per week, 6 weeks, lower = less bone lysis
[6] = group average of 10 mice, Bortezomib 0.6 mg/kg i.p., MOR202 3 mg/kg i.p., 6 weeks

With `CC(C)C[C@H](NC(=O)[C@H](Cc1ccccc1)NC(=O)c1cnccn1)B(O)O` [bortezomib] the IC50 (RPMI-8226 cells) was 9 nM, the “Enhancement of MOR202 ADCC activity by bortezomib (in words)” value (NCI-H929 cells [1]) was “enhancement in MOR202 activity” and the IC50 (LP-1 cells [2]) was 6.1 nM. The IC50 (AMO-1 cells) was 3.9 nM, the IC50 (NCI-H929 cells [3]) was 3.3 nM and the “Structure Model Index (SMI), individual mouse” value (NCI-H929 MM cells; [5]) was 2.443 and 2.374 and 2.156 and 2.262 and 2.700 and 2.981 and 3.007 and 2.553 and 2.337 and 2.273. The “Trabecular Pattern Factor (Tb · Pf), individual mouse” value (NCI-H929 MM cells; [5]) was 25.893 mm^−1 and 26.044 mm^−1 and 16.877 mm^−1 and 23.179 mm^−1 and 32.463 mm^−1 and 33.152 mm^−1 and 34.609 mm^−1 and 31.813 mm^−1 and 27.147 mm^−1 and 23.582 mm^−1, the “Structure Model Index (SMI), Average” value (NCI-H929 MM cells; [6]) was 2.509 and the “Trabecular Pattern Factor (Tb · Pf), Average” value (NCI-H929 MM cells; [6]) was 27.476 mm^−1. The “Reduction of bone lysis compared to vehicle control” value (NCI-H929 MM cells; non-inoculated tibia = 0%, vehicle = 100% bone lysis, MOR202 alone 12 mg/kg, BOR alone 0.6 mg/kg, combination 3 mg/kg MOR202 and 0.6 mg/kg BOR) was 40%, the “Enhancement of MOR202 ADCC activity by bortezomib (in words)” value (LP-1 cells [4]) was “enhancement in MOR202 activity” and the “Number of mice alive at study termination (day 98)” value (RAMOS cells) was 0/8. For the same compound, the “Day of death (post-inoculation) Mean” value (RAMOS cells; study 98 days) was 19.1 days, the “Day of death (post-inoculation) Median” value (RAMOS cells; study 98 days) was 19 days and the “% ILS (based on median death day)” value (RAMOS cells; vs vehicle control) was −7%.
